# Measured values from BindingDB's records for doi:10.1016/j.bmcl.2017.11.009 (De Montfort University, 2017).
# Assay: Inhibition of recombinant human CYP1A1 expressed in HEK293 cells assessed as reduction in benzo(a)pyrene-induced toxicity by measuring B[a]P EC50 at 2 times IC50 by MTT assay (Rvb = 0.8 +/- 0.14 uM)
row,Structure (SMILES),EC50
1,CCOc1cc(/C=C/C(=O)c2ccncc2)cc(OC)c1OC,14 µM
2,CCOc1cc(/C=C/C(=O)c2ccncc2)cc(OCC)c1OCC,14 µM
3,CCOc1cc(/C=C/C(=O)c2ccncc2)cc(OC)c1OCC,14 µM
4,COc1cc(/C=C/C(=O)c2ccncc2)cc(OC)c1OC,14 µM

# Assay: Inhibition of recombinant human CYP1B1 expressed in HEK293 cells assessed as potentiation of cisplatin-induced cytotoxicity by measuring cisplatin EC50 by MTT assay (Rvb = 65.01 +/- 7.01 uM)
row,Structure (SMILES),EC50
1,COc1cc(/C=C/C(=O)c2ccncc2)cc(OC)c1,10 µM
2,COc1ccccc1/C=C/C(=O)c1ccncc1,10 µM
3,COc1cccc(/C=C/C(=O)c2ccncc2)c1,10 µM
4,COc1ccc(/C=C/C(=O)c2ccncc2)c(OC)c1OC,10 µM
